Measurements reported in US20240398785A1, “SMALL MOLECULE DRUGS FOR THE INDUCTION OF TRAINED IMMUNITY” (THE UNIVERSITY OF CHICAGO, priority 2023, published 2024).

What was measured:
BMDMs [1] = experiment: Annexin-V staining for apoptotic cells; type: cell-based, mouse; conditions: 100 nM, 24 hours
Method: FIGS. 9A-9E: Representative plots for Annexin V gating strategy for apoptotic cells: BMDMs were stimulated with nothing (unstained control, FIG. 9A), PBS (negative control, FIG. 9B), Camptothecin (positive control, FIG. 9C) or A1155463 (FIG. 9D); n=3, (except camptothecin n=1). Results from plots 9B-9D depicted in FIG. 9E.
Since Bcl-xL is a known anti-apoptotic protein, a study was performed to see if inhibition with 100 nM A1155463 induced apoptosis in BMDMs. To test this, Annexin-V staining was used to gate for apoptotic cells 24 hours following stimulation with either PBS or A1155463.

B16.F10 tumors = experiment: B16.F10 tumor model after A1155463 training; type: in vivo, mouse
Method: FIGS. 6A-6H: in-vivo A1155463 trained immunity (TI) assays. FIG. 6A is a schematic showing the in-vivo training schedule. Mice were dosed intraperitoneally (i.p.) with training material (PBS or A1155463 at 15 milligrams per kilogram body weight (mg/kg)) daily for six days. Mice were challenged with 5 mg lipopolysaccharide (LPS) on day 7. FIG. 6B is a graph showing the interleukin-6 (IL-6) and tumor necrosis factor-alpha (TNF-α) levels (expressed as picograms per milliliter (pg/ml) 1 hour (h) following LPS challenge with either PBS (black) or A1155463 (pink); n=5. FIG. 6C is a graph showing the percentage (%) of small peritoneal macrophages (SPMs) from the peritoneal cavity of PBS (black) or A1155463 trained (pink) mice 2 h post LPS challenge on day 7. FIG. 6D is a graph showing the IL-6 levels (pg/ml) from bone-marrow cells isolated on day 7 challenged ex-vivo with LPS from either PBS (black) or A1155463 (pink) trained mice; n=3. FIG. 6E is a schematic showing the in-vivo training schedule for B16.F10 tumor challenge. FIG. 6F is a graph showing the tumor volumes (in cubic millimeters (mm3)) of mice trained with PBS (black) or A1155463 (pink) mice; n=8. FIG. 6G is a schematic of the in-vivo training schedule for B16.F10 tumor challenge with checkpoint therapy (CPT) administered on day 14 and 17. […]

BMDMs [2] = experiment: A1155463 immunogenicity, BMDM supernatant after 24 hours; type: cell-based, mouse; conditions: no challenge
Method: FIG. 7: Testing immunogenicity of A115463 on BMDMs: BMDMs (100,000 cells per well) were incubated with PBS (red), different doses of A1155463 (blue 10 uM, green 1 uM or purple 0.1 uM) or different concentrations of DMSO, reflective of the A1155463 doses for 24 h.
(§1) Bcl-xL is an anti-apoptotic protein with some role in mediating inflammatory reactions.^32,33 Most documented inducers of trained immunity elicit an initial immune response upon administration. However, A1155463 has never been reported elicit inflammatory responses in vitro. To test if A1155463 elicited an enhanced innate response on its own in vitro, supernatant from BMDMs cultured with A1155463 for 24 hours was analyzed. […] The non-immunogenicity of A1155463 was validated using an NF-kb reporter cell line. […] Taken together, this evidence supports that A1155463 is a non-immunogenic trained immunity inducing molecule.

RAW-Blue cells = experiment: RAW-Blue NF-kb reporter assay; type: cell-based; conditions: after 18 hours
Method: FIG. 8: RAW-Blue assay: RAW-Blue cells (100,000 cells per well) were incubated with PBS (black), A1155463 (pink) or 100 ng/mL LPS (green) for 18 h.
as §1

BMDMs [3] = experiment: A1155463 in-vitro training assay in BMDMs; type: cell-based, mouse; conditions: 24 hours after challenge, vs PBS-trained
Method: FIGS. 5A-5F: Testing A1155463 as an inducer of trained immunity (TI) in vitro. FIG. 5A is a schematic diagram for in-vitro TI assay in bone marrow-derived macrophages (BMDMs). FIG. 5B is a graph showing interleukin-6 (IL-6) levels (expressed in picograms per milliliter (pg/ml) 24 hours (h) post PAM3-CSK4 (Pam3) challenge in an in-vitro TI assay in BMDMs trained with either phosphate buffered saline (PBS) (black) or A1155463 (pink); n=15. FIG. 5C is a graph showing tumor necrosis factor alpha (TNF-α) levels (pg/ml) 24 h post Pam3 challenge in an in-vitro TI assay in BMDMs trained with either PBS (black) or A1155463 (pink); n=10. FIG. 5D is a graph showing IL-6 levels (pg/ml) 24 h post-stimulation with PBS (black) or A1155463 (pink); n=3. FIG. 5E is a graph showing the fold change in TNF-α following Pam3 challenge in BMDMs trained with A1155463 pre-treated with PBS, MTA (histone methyl transferase inhibitor), EGCG (histone acetyltransferase inhibitor) or 2-DG (glycolysis inhibitor); n=15, significance compared with PBS control of each inhibitor. FIG. 5F is a graph of IL-6 levels (pg/ml) 24 h post Pam3 challenge in an in-vitro TI assay in BMDMs trained with either PBS (black) or A1155463 (pink) pretreated with varying concentrations of 2-DG; n=5.
A1155463 is a commercially available inhibitor of the B-cell lymphoma-extra large (Bcl-xL) protein. […]

Compound: CN(C)CC#Cc1ccc(OCCCc2sc(N3CCc4cccc(C(=O)Nc5nc6ccccc6s5)c4C3)nc2C(=O)O)c(F)c1 [A1155463, 2-(8-(benzo[d]thiazol-2-ylcarbamoyl)-3,4-dihydroisoquinolin-2(1H)-yl)-5-(3-(4-(3-(dimethyl-amino)prop-1-yn-1-yl)-2-fluorophenoxy)propyl)thiozole-4-carboxylic acid]
- percentage of apoptotic cells (BMDMs [1]): No significant difference
- tumor growth vs untrained (vehicle) control (B16.F10 tumors; 15 mg/kg daily for 6 days, s.c. B16.F10 24 hours after last dosing): significant decrease in tumor growth
- tumor growth with checkpoint therapy (B16.F10 tumors; plus anti-PDL1 and anti-CTLA-4 on days 14 and 17): Significantly reduced tumor growth
- IL-6 levels vs PBS-treated BMDMs (BMDMs [2]): No significant difference
- NF-kb reporter signal vs PBS-treated cells (RAW-Blue cells): No significant difference
- increase in IL-6 following Pam3 challenge (BMDMs [3]): approximately 1.2 fold
- increase in TNF-α following Pam3 challenge (BMDMs [3]): approximately 1.2 fold
